Test results from patent US12390456B2, “Pridopidine for treating Huntington's disease” (PRILENIA NEUROTHERAPEUTICS LTD., priority 2013, dated 2025).
Like-named read-outs stand apart in the source and are kept apart here.

Key:
patients with HD [1] = details: cited from earlier work
patients with HD [2] = details: 26 weeks; 67.5 mg, 90 mg and 112.5 mg bid
Description: The Modified Physical Performance Test (mPPT) is used instead of the Physical Performance Test (PPT). The Walk-12 scale in used instead of the Multiple Sclerosis Walking Scale (MSWS).

patients with HD [3] = details: 26 weeks; 67.5 mg, 90 mg and 112.5 mg bid; remark: listed apart in the source
Description: The model includes the following fixed effects: categorical week in study by treatment interaction, center, neuroleptic use or no use, and baseline UHDRS-TMS score. The unstructured covariance matrix for repeated observations within patients is used.

patients with HD [4] = details: 12 weeks; 67.5 mg, 90 mg and 112.5 mg bid
Protocol: The primary efficacy variable and endpoint for this study is change from baseline in the UHDRS-TMS (defined as the sum of all UHDRS motor domains ratings) at Week 12.
The change from baseline in TMS is analyzed using a Repeated Measures model (SAS® MIXED procedure with REPEATED sub-command). The model includes the following fixed effects: categorical week in trial by treatment interaction, center, neuroleptic use or no use and baseline TMS score. The unstructured covariance matrix for repeated observations within patients is used.

patients with HD [5] = tested on: patients with HD
Protocol: Study ACR16C007 explored the efficacy of 44 mg pridopidine once daily (qd) in 58 patients.

COc1cc2c(cc1OC)C1CC(=O)C(CC(C)C)CN1CC2 (stereo not drawn) [tetrabenazine]
effect on motor components other than chorea (patients with HD [1]; in vivo): no significant effect | improvement on the UHDRS-TMS (patients with HD [1]; p=0.075, 45 to 47 points at baseline): 3.3 points

CCCN1CCC(c2cccc(S(C)(=O)=O)c2)CC1 [pridopidine, 4-[3-(methylsulfonyl)phenyl]-1-propyl-piperidine]
changes from baseline in UHDRS-TMS (patients with HD [2]): Statistically significant changes | changes from baseline in UHDRS-TMS (patients with HD [3]): Statistically significant changes | changes from baseline in TMS (patients with HD [4]): Statistically significant changes | effect on mMS (patients with HD [5]; 45 mg bid, HART and MermaiHD): did not reach the pre-specified significance criteria | improvement in UHDRS-TMS relative to placebo (patients with HD [5]; 45 mg bid, MermaiHD and HART): approximately 3 points | findings on the TMS (patients with HD [5]; HART and MermaiHD): statistically significant findings | efficacy in treating motor symptoms in HD (mMS and TMS) (patients with HD [5]; HART study, 10, 22.5 and 45 mg bid, 12 weeks): dose-dependent efficacy
